The results in this text go back to ChEMBL document CHEMBL4823298, “In vitro anti-Leishmania activity and molecular docking of spiro-acridine compounds as potential multitarget agents against Leishmania infantum” (Bioorg Med Chem Lett, 2021).

For data set [1], the system named is Leishmania infantum. Briefly: Antileishmanial activity against promastigote form of Leishmania infantum assessed as inhibition of parasite growth. In kind it is functional, organism-based.
A short description of data set [2]: Cytotoxicity against human erythrocytes. In kind it is cell-based, Erythrocyte.
Data set [3] in a line: Inhibition of Leishmania donovani Topoisomerase 1.
A short description of data set [4]: Selectivity index, ratio of CC50 for PBMC (unknown origin) to EC50 for anti-leishmanial activity against axenic amastigote stage of Leishmania infantum. In kind it is toxicity. The following applies: read-out: Ratio CC50/EC50.
Data set [5] concerns Leishmania infantum. Briefly: Antileishmanial activity against axenic amastigote stage of Leishmania infantum assessed as reduction in parasite growth. In kind it is functional, organism-based.
Data set [6] in a line: Cytotoxicity against PBMC (unknown origin).
The nature of data set [7]: Inhibition of Leishmania Trypanothione reductase.
For data set [8], the system named is Leishmania infantum. Briefly: Antileishmanial activity against axenic amastigote stage of Leishmania infantum assessed as reduction in parasite growth at 6.25 to 12.5 ug/ml. In kind it is functional. The following applies: dose 6.25-12.5 µg/ml; at 6.25 to 12.5 µg/mL.
The subject of data set [9] is Leishmania infantum. Briefly: Antileishmanial activity against axenic amastigote stage of Leishmania infantum assessed as reduction in parasite growth at 0.7812 ug/ml. In kind it is functional.

The term IC50 denotes the midpoint of a concentration-inhibition curve. As usually defined, the HC50 is the concentration giving 50% haemolysis. Lower therefore signals stronger haemolysis. What is called EC50 is the concentration giving half of the maximal effect. As a reminder, the CC50 is the concentration giving 50% cytotoxicity. A higher CC50 goes with better tolerance by the cells. As a reminder, the inhibition is how much of the control response was suppressed.

The structures appear in SMILES notation. Converted amounts (≈) assume the structure as drawn.

Regarding `N#CC1=CC2(c3ccccc3Nc3ccccc32)N(/N=C\c2ccc(F)cc2)C1=O`, in the data set with Leishmania infantum [1], the IC50 was 4.11 µg/mL (≈ 10.4 µM). In data set [2], this compound registered an HC50 of over 400 µg/mL.
In [3], `CC[C@@]1(O)C(=O)OCc2c1cc1n(c2=O)Cc2cc3ccccc3nc2-1` [CAMPTOTHECIN] displayed an EC50 of 0.7 µM.
As for `C[C@@H]1[C@H](O)[C@@H](C)/C=C/C=C/C=C/C=C/C=C/C=C/C=C/[C@H](O[C@@H]2O[C@H](C)[C@@H](O)[C@H](N)[C@@H]2O)C[C@@H]2O[C@](O)(C[C@@H](O)C[C@@H](O)[C@H](O)CC[C@@H](O)C[C@@H](O)CC(=O)O[C@H]1C)C[C@H](O)[C@H]2C(=O)O` [AMPHOTERICIN B], in data set [4], the selectivity ratio stood at 4.78. Moreover, in the data set on Leishmania infantum [5], the EC50 came out at 1.6 µg/mL (≈ 1.73 µM). Besides, the IC50 in the data set on Leishmania infantum [1] was determined as 0.9 µg/mL (≈ 0.974 µM). The compound further came in with a CC50 in data set [6] of 7.63 µg/mL (≈ 8.26 µM).
For `N#CC1=CC2(c3ccccc3Nc3ccccc32)N(/N=C\c2c(Cl)cccc2Cl)C1=O`, the IC50 in the data set on Leishmania infantum [1] amounted to 2.63 µg/mL (≈ 5.91 µM). The compound further yielded an HC50 in [2] of over 400 µg/mL.
`OCCN1CCN(CCCN2c3ccccc3Sc3ccc(Cl)cc32)CC1` [PERPHENAZINE]: the IC50 in [7] was found to be 4.88 µM.
With `CCOc1cc(/C=N\N2C(=O)C(C#N)=CC23c2ccccc2Nc2ccccc23)ccc1O`, the IC50 with Leishmania infantum [1] was found to be 6.06 µg/mL (≈ 13.9 µM). The HC50 in data set [2] was over 400 µg/mL.
In the case of `CN(C)c1ccc(/C=N\N2C(=O)C(C#N)=CC23c2ccccc2Nc2ccccc23)cc1`, the selectivity ratio in data set [4] is over 103. In the data set with Leishmania infantum [5], the EC50 came out at 0.974 µg/mL (≈ 2.32 µM). Further, the concentration for half-maximal inhibition (IC50) with Leishmania infantum [1] amounted to 1.11 µg/mL (≈ 2.64 µM). The CC50 in data set [6] was over 100 µg/mL. Moreover, the “inhibition (INH)” value with Leishmania infantum [8] was found to be 65%. Moreover, the inhibition at 0.7812 µg/mL with Leishmania infantum [9] was determined as 33.2%. This compound also yielded an HC50 in [2] of over 400 µg/mL.
As for `N#CC1=CC2(c3ccccc3Nc3ccccc32)N(/N=C\c2ccc([N+](=O)[O-])cc2)C1=O`, in the data set with Leishmania infantum [1], the IC50 is 5.33 µg/mL (≈ 12.7 µM). Besides, in [2], the HC50 was over 400 µg/mL.
`CN(C)CCCN1c2ccccc2CCc2ccc(Cl)cc21` [CLOMIPRAMINE] yielded an IC50 in data set [7] of 3.8 µM.
With `N#CC1=CC2(c3ccccc3Nc3ccccc32)N(/N=C\c2ccc(Cl)cc2Cl)C1=O`, the IC50 in the data set with Leishmania infantum [1] is 3.89 µg/mL (≈ 8.74 µM). The compound further yielded an HC50 in data set [2] of over 400 µg/mL.
Turning to `N#CC1=CC2(c3ccccc3Nc3ccccc32)N(/N=C\c2ccccc2[N+](=O)[O-])C1=O`, the IC50 with Leishmania infantum [1] turned out to be 3.78 µg/mL (≈ 8.97 µM). The compound also showed an HC50 in [2] of over 400 µg/mL.
As for `N#CC1=CC2(c3ccccc3Nc3ccccc32)N(/N=C\c2ccc(Cl)cc2)C1=O`, the IC50 in the data set with Leishmania infantum [1] stood at 5.68 µg/mL (≈ 13.8 µM). For the same compound, the HC50 in data set [2] was over 400 µg/mL.
In the case of `N#CC1=CC2(c3ccccc3Nc3ccccc32)N(/N=C\c2ccccc2)C1=O`, the selectivity ratio in data set [4] came to 8.9. In addition, the EC50 with Leishmania infantum [5] turned out to be 4.96 µg/mL (≈ 13.2 µM). Also, in the data set on Leishmania infantum [1], the IC50 was 2.04 µg/mL (≈ 5.42 µM). This compound had a CC50 in [6] of 44.2 µg/mL (≈ 117 µM). For the same compound, the “inhibition (INH)” value in the data set on Leishmania infantum [8] is listed as 65%. Further, the inhibition at 0.7812 µg/mL with Leishmania infantum [9] was 21.7%. This compound also gave an HC50 in data set [2] of over 400 µg/mL.
In data set [7], `CCN(CC)CCCC(C)Nc1c2ccc(Cl)cc2nc2ccc(OC)cc12` (stereo unspecified) [QUINACRINE] returned an IC50 of 19 µM.
